From patent publication US10766866B2, “Deterrents for arthropods and marine organisms” (priority 2017, dated 2020)
Read-outs that look alike come from different tables or passages of the source.

How the values were obtained:
[1] = test system: Anopheles gambiae mosquito isoform A OctR (AgAOctR); experiment: OctR activation, change in intracellular calcium; assay type: cell-based; details: for selectivity Ki(Hsα2-AR)/EC50(OctR): AgAOctR over Homo sapien α2-AR subtypes
Source text: (§1) Functional expression of cloned arthropod OctRs and human α2-ARs: The cDNAs for α-like OctRs from different arthropod species (e.g., Anopheles gambiae, Aedes aegypti, Periplaneta americana, Drosophila melanogaster, Ixodes scapularis, Balanus improvises) and for α2-AR subtypes from humans were individually subcloned into mammalian expression vectors. These plasmids, which harbor a resistance gene for the selection drug G418 and the cDNA sequence for the receptor of interest, were individually transfected into mammalian cells using a calcium phosphate precipitation method. G418 selection was then employed to generated stable clonal cell lines. Utilizing rapid filtration radioligand binding techniques, the cell surface density of receptor expression of the individual clonal cell lines was determined at equilibrium and those with similar high levels of expression were selected for further experiments. Briefly, binding conditions were 50 mM Tris binding buffer pH 7.4 at 25° C. and an ice-cold wash buffer 10 mM Tris-HCl, pH 7.4). The radioligand was [3H]rauwolscine and non-specific binding was determined in the presence of 10 μM atipamezole. Following the addition of membranes prepared from the clonal cell lines, samples were mixed and allowed 2 hr. to reach equilibrium before rapid filtration and washing through 0.3% PEI-treated GF/C filters. The radioactivity remaining on the filters was quantified by scintillation counting. Receptor density (Bmax) was back calculated knowing the specific activity of the radioligand and applying the equation for a square hyperbola model: Bmax=(Y·(KD+X))/X, where Y is [specifically bound radioligand] and X=[radio ligand concentration]. The affinity (KD) for the radioligand for each receptor was determined in separate saturation isotherm binding experiments using the same binding conditions as describe above.
(§2) Measurement of OctR activation by measuring changes in intracellular calcium: Activation of arthropod α-like OctRs increases intracellular calcium via a Gq-coupling mechanism. This involves activation of phospholipase C leading to an increase in intracellular inositol triphosphate (IP3) which then activates IP3-gated calcium channels in the endoplasmic reticulum causing a transient rise in intracellular calcium. These changes in intracellular calcium upon OctR activation were measured by loading cells with intracellular calcium sensitive dye CALCIUM 6QR and reading the change in calcium-induced fluorescent signal over time on a FlexStation 3 microplate reader.

[2] = molecular target: T1, AgAOctR (Anopheles octopamine receptor isoform A), cloned α-like OctR (Anopheles gambiae, UniProt Q7PRZ8); experiment: OctR activation: change in intracellular calcium (CALCIUM 6QR dye, FlexStation 3) in stably transfected mammalian cells; assay type: cell-based; details: agonist
T1 construct: Gq calcium readout
T1 sequence (Q7PRZ8 1-592): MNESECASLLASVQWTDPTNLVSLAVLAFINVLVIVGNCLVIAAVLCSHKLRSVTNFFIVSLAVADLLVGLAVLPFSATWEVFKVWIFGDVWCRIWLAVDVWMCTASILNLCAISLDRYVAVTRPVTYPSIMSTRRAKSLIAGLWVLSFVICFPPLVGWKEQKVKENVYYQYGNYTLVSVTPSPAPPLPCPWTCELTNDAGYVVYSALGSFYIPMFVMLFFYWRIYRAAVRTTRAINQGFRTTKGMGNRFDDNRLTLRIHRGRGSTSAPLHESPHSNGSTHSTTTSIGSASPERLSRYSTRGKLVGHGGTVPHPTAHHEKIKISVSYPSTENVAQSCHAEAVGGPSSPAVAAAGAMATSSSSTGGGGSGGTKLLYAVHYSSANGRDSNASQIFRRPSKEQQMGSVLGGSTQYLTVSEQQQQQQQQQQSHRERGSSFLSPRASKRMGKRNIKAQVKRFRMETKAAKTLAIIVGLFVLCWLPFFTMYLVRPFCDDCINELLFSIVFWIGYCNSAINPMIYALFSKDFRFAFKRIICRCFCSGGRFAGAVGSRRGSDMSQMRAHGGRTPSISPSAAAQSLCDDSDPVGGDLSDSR
Source text: as §1, §2

[3] = molecular target: T2, DmOctR (Drosophila octopamine receptor), cloned α-like OctR (Drosophila melanogaster, UniProt Q7JQF1); experiment: as above; assay type: cell-based; details: agonist
T2 construct: Gq calcium readout
T2 sequence (Q7JQF1 1-645): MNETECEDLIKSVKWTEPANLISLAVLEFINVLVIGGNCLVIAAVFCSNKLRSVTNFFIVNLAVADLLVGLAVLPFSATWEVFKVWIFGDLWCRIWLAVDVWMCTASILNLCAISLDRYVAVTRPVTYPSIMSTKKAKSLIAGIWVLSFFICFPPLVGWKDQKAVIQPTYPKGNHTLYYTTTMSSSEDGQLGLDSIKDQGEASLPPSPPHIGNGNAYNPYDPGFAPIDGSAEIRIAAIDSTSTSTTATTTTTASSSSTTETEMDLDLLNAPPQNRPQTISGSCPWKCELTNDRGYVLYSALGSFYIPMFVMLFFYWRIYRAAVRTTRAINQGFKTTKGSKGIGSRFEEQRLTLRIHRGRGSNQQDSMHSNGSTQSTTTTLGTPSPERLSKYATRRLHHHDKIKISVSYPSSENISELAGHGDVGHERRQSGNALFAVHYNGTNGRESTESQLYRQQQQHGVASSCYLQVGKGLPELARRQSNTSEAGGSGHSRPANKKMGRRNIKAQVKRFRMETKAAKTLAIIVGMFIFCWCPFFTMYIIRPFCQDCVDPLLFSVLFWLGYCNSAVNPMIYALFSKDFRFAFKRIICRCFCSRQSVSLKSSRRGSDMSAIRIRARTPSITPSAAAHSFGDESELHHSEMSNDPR
Source text: as §1, §2

[4] = molecular target: T3, PaOctR (Periplaneta octopamine receptor), cloned α-like OctR (Periplaneta americana, UniProt Q7YWB7); experiment: as above; assay type: cell-based; details: agonist
T3 construct: Gq calcium readout
T3 sequence (Q7YWB7 1-628): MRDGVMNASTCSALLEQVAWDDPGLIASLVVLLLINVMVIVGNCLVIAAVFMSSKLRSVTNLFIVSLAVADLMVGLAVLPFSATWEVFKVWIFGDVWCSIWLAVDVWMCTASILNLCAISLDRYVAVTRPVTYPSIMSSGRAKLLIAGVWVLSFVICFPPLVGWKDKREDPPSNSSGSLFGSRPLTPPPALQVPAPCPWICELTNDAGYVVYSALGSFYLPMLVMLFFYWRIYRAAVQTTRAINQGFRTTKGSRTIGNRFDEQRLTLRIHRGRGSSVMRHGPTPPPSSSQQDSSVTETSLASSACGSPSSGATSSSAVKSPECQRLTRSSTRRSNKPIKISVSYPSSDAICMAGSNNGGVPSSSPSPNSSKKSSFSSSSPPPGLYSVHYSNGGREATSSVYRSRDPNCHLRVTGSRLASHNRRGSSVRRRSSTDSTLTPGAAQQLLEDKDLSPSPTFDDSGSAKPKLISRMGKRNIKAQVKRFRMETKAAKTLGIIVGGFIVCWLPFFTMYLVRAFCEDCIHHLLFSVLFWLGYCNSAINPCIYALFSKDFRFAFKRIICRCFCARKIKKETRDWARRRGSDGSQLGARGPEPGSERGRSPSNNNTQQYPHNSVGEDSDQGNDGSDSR
Source text: as §1, §2

[5] = test system: IsTOctR (Ixodes octopamine receptor), cloned α-like OctR; experiment: as above; assay type: cell-based, Ixodes scapularis
Source text: as §1, §2

[6] = test system: AeOctR (Aedes octopamine receptor), cloned α-like OctR; experiment: as above; assay type: cell-based, Aedes aegypti; details: agonist
Source text: as §1, §2

[7] = molecular target: T4, Hsα2A-AR (human α2A adrenergic receptor) (Homo sapiens, UniProt P08913); experiment: [3H]rauwolscine competition radioligand binding, membranes of clonal mammalian cell lines; details: 50 mM Tris pH 7.4, 25° C., 2 hr, Cheng-Prusoff
T4 construct: expressed in transfected cells; membranes
T4 sequence (P08913 whole entry): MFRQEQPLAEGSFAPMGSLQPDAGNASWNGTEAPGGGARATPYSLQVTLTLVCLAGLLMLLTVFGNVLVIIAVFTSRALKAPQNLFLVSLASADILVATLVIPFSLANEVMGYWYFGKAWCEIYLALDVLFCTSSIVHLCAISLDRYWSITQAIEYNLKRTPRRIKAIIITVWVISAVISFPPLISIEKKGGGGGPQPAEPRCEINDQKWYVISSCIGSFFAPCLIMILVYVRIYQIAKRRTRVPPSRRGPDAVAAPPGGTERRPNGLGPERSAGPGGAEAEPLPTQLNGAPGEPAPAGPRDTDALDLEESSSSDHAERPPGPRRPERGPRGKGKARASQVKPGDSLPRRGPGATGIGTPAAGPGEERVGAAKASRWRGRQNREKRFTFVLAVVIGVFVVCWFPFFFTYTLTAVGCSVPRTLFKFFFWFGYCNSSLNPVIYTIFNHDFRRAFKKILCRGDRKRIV
Source text: as §1
(§3) Measurement of compound affinities by competition radioligand binding: Affinities (Ki) for compounds were determined by [3H]rauwolscine competition binding using the same binding conditions as described above. The Ki values were calculated from IC50 values using the Cheng-Prusoff equation.

[8] = molecular target: T5, Hsα2C-AR (human α2C adrenergic receptor) (Homo sapiens, UniProt P18825); experiment: as above; details: 50 mM Tris pH 7.4, 25° C., 2 hr, Cheng-Prusoff
T5 construct: expressed in transfected cells
T5 sequence (P18825 1-462): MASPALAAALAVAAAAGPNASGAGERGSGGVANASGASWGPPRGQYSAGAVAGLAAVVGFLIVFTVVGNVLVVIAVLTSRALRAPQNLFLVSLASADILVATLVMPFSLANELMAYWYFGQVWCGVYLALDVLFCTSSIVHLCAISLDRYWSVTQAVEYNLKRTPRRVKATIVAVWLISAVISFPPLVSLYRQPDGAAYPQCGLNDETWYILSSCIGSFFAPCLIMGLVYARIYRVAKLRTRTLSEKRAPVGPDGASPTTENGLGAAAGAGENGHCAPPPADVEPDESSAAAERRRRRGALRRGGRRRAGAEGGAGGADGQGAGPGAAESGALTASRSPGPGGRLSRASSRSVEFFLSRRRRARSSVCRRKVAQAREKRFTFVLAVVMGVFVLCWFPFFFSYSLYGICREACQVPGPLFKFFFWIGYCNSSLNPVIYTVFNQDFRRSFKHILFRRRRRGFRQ
Source text: as §1, §3

[9] = test system: Aedes aegypti α-like OctR (AeOctR); experiment: OctR activation, change in intracellular calcium; assay type: cell-based; details: 100 μM; normalized to octopamine at a supersaturating concentration; FIG. 1B
Source text: as §1, §2

[10] = molecular target: T6, Drosophila melanogaster α-like OctR (DmOctR) (Drosophila melanogaster, UniProt Q7JQF1); experiment: OctR activation, change in intracellular calcium; assay type: cell-based; details: 100 μM; normalized to octopamine at a supersaturating concentration; FIG. 1A
T6 construct: expressed in transfected cells
T6 sequence (Q7JQF1 1-645): T2 sequence (Q7JQF1 1-645)
Source text: as §1, §2

[11] = test system: Ixodes scapularis tick OctR (IsTOctR); experiment: OctR activation, change in intracellular calcium; assay type: cell-based; details: 100 μM; normalized to octopamine at a supersaturating concentration; FIG. 1C
Source text: as §1, §2

[12] = test system: Periplaneta americana OctR (PaOctR); experiment: OctR activation, change in intracellular calcium; assay type: cell-based; details: 100 μM; normalized to octopamine at a supersaturating concentration; FIG. 1D
Source text: as §1, §2

[13] = test system: Balanus OctR (BiOctR); experiment: OctR activation, change in intracellular calcium; assay type: cell-based, Balanus improvises; details: 100 μM; compared with octopamine
Source text: as §1, with “Briefly, binding conditions were 50 mM Tris binding buffer pH 7.4 at 25° C. and an ice-cold wash buffer 10 mM Tris-HCl, pH 7.4).” left out, “Following the addition of membranes prepared from the clonal cell lines, samples were mixed and allowed 2 hr. to reach equilibrium before rapid filtration and washing through 0.3% PEI-treated GF/C filters.” left out, “The affinity (KD) for the radioligand for each receptor was determined in separate saturation isotherm binding experiments using the same binding conditions as describe above.” left out

[14] = test system: Aedes mosquito; experiment: Protection against mosquito biting and toxicity to mosquitoes; assay type: in vivo; details: DEET: at the lowest concentration that produces maximal protection against biting (LC50)
[15] = agonist, read-out: IsTOctR (Ixodes octopamine receptor) EC50

Compound	selectivity Ki(Hsα2-AR)/EC50(OctR) [1]	EC50 [2] [nM]	EC50 [5, 15] [nM]	Ki [7] [nM]	Ki [8] [nM]	agonist response (change in intracellular calcium) relative to octopamine [9]	agonist response (change in intracellular calcium) relative to octopamine [10]	also measured
COC(c1cnc[nH]1)c1cccc(C)c1C (centres unmarked) [AZ1400]	highly selective	2.3 ± 0.69	35 ± 7.4	1310 ± 247	973 ± 146			EC50 [3]: 846 ± 440 nM; EC50 [4]: 85 ± 34 nM; EC50 [6]: > 20000 nM
C/C=C(\c1cnc[nH]1)c1cccc(C)c1C [AZ1409 Z-isomer]		58 ± 41	969 ± 358					
Cc1c(C(O)c2cnc[nH]2)cccc1C(F)(F)F (centres unmarked) [AZ1399]	highly selective	11 ± 3.7	43 ± 11	3210 ± 672	2110 ± 385			EC50 [3]: 367 ± 237 nM; EC50 [4]: 82 ± 25 nM
Cc1cccc(C(O)c2cnc[nH]2)c1C (centres unmarked) [AZ0024]	highly selective	0.42 ± 0.13	4.4 ± 2.9	356 ± 77	558 ± 85			EC50 [3]: 57 ± 13 nM; EC50 [4]: 5.9 ± 2.9 nM; EC50 [6]: 627 ± 274 nM
C=C(c1cnc[nH]1)c1cccc(C(F)(F)F)c1C [AZ1415]	highly selective	0.58 ± 0.61	18 ± 6.9					efficacy (full/partial agonist) ([1]; in words, FIGS. 9-12): full efficacy; potency (EC50) ([1]; in words, FIGS. 9-12): high potency
Cc1cccc(C(O)c2cnc[nH]2)c1 (centres unmarked) [AZ1410]	highly selective	38 ± 16	185 ± 92	4200 ± 1760	9440 ± 6470			
CCC(C)OC(=O)N1CCCCC1CCO (centres unmarked) [picaridin, 1-(1-methylpropoxycarbonyl)-2-(2-hydroxyethyl)piperidine]						did not produce a significant agonist response	did not produce a significant agonist response	agonist response (change in intracellular calcium) relative to octopamine [11]: did not produce a significant agonist response; agonist response (change in intracellular calcium) relative to octopamine [12]: did not produce a significant agonist response; agonist response (change in intracellular calcium) relative to octopamine [13]: significant agonist responses
CCN(CC)C(=O)c1cccc(C)c1 [DEET, N,N-diethyl-meta-toluamide]						did not produce a significant agonist response	did not produce a significant agonist response	agonist response (change in intracellular calcium) relative to octopamine [11]: did not produce a significant agonist response; agonist response (change in intracellular calcium) relative to octopamine [12]: did not produce a significant agonist response; toxicity to mosquitoes [14]: lethal in half the mosquitoes
C/C=C(/c1cnc[nH]1)c1cccc(C)c1C [AZ1440 E-isomer]		10 ± 4.7						EC50 ([5]; read-out: IsTOctR (Ixodes octopamine receptor) EC50, agonist): 90 ± 25 nM
CCCCN(CCC(=O)OCC)C(C)=O [IR3535, ethyl butylacetylaminopropionate]						did not produce a significant agonist response	did not produce a significant agonist response	agonist response (change in intracellular calcium) relative to octopamine [11]: did not produce a significant agonist response; agonist response (change in intracellular calcium) relative to octopamine [12]: did not produce a significant agonist response
CC1CCC(C(C)(C)O)C(O)C1 (centres unmarked) [PMD, para-menthane-3,8-diol]						< 25%	< 25%	
